US9668962B2, “Compositions and related methods for oral wellness” (NOWSystem, Inc., priority 2012, dated 2017)

Experiments:
S. mutans [1] = experiment: zone of inhibition on blood agar, drop technique and line method (Example 2); type: cell-based, Streptococcus mutans; settings: control, 3 ul of 20%; after 3 days of incubation
Description: (§1) Experimental Design: Blood agar (for the 3 anaerobic bacteria, 1 facultative bacterium and 1 aerobic yeast; Fisher Scientific) plates were individually swabbed with fresh 24 h broth cultures of C. albicans, P. gingivalis, P. intermedia, F. nucleatum and S. mutans to provide a confluent lawn of microbial growth. […] Assays were conducted in duplicate and undiluted and 1:5 and 1:10 dilutions of the solutions and sterile saline (negative control) were used. The plates were incubated agar-side up at 37° C. in a GasPak anaerobic jar or in 5% CO2 for 72 h. Plates were examined at 72 h for zones of inhibition of growth of the microbes. The diameter of each zone was measured in mm. The zones of inhibition of each dilution sample were compared to the zones of control saline without antimicrobial components. If the zones of the solutions were the same size (or smaller) than the inhibition zones from the control saline than there was judged no inhibition of antimicrobial activity by the antimicrobial solutions. Conversely, if the zones of the solutions were larger than the inhibition zones from the control saline than there was judged significant antimicrobial activity by the solutions. It was anticipated that there will be significant inhibition of microbial growth by at least some of the antimicrobial wheat grass products. […]

P. gingivalis [2] = experiment: as above; type: cell-based, Porphyromonas gingivalis; settings: control, 3 ul of 20%; after 3 days of incubation
Description: Experimental Design: Blood agar (for the 3 anaerobic bacteria, 1 facultative bacterium and 1 aerobic yeast; Fisher Scientific) plates were individually swabbed with fresh 24 h broth cultures of C. albicans, P. gingivalis, P. intermedia, F. nucleatum and S. mutans to provide a confluent lawn of microbial growth. Five minutes after swabbing the plates (to allow the inoculum to absorb into the agar), the test and control specimens ([…]) onto designated places on the plates and allowed to adsorb (or adhere, in the case of the undiluted sera) into the agar. Assays were conducted in duplicate and undiluted and 1:5 and 1:10 dilutions of the solutions and sterile saline (negative control) were used. The plates were incubated agar-side up at 37° C. in a GasPak anaerobic jar or in 5% CO2 for 72 h. Plates were examined at 72 h for zones of inhibition of growth of the microbes. The diameter of each zone was measured in mm. The zones of inhibition of each dilution sample were compared to the zones of control saline without antimicrobial components. If the zones of the solutions were the same size (or smaller) than the inhibition zones from the control saline than there was judged no inhibition of antimicrobial activity by the antimicrobial solutions. […]

P. intermedia [3] = experiment: as above; type: cell-based, Prevotella intermedia; settings: control, 3 ul of 20%; after 3 days of incubation
Description: Experimental Design: Blood agar (for the 3 anaerobic bacteria, 1 facultative bacterium and 1 aerobic yeast; Fisher Scientific) plates were individually swabbed with fresh 24 h broth cultures of C. albicans, P. gingivalis, P. intermedia, F. nucleatum and S. mutans to provide a confluent lawn of microbial growth. Five minutes after swabbing the plates (to allow the inoculum to absorb into the agar), the test and control specimens ([…] adhere, in the case of the undiluted sera) into the agar. Assays were conducted in duplicate and undiluted and 1:5 and 1:10 dilutions of the solutions and sterile saline (negative control) were used. The plates were incubated agar-side up at 37° C. in a GasPak anaerobic jar or in 5% CO2 for 72 h. Plates were examined at 72 h for zones of inhibition of growth of the microbes. The diameter of each zone was measured in mm. The zones of inhibition of each dilution sample were compared to the zones of control saline without antimicrobial components. If the zones of the solutions were the same size (or smaller) than the inhibition zones from the control saline than there was judged no inhibition of antimicrobial activity by the antimicrobial solutions. Conversely, if the zones of the solutions were larger than the inhibition zones from the control saline than there was judged significant antimicrobial activity by the solutions. […]

F. nucleatum [4] = experiment: as above; type: cell-based, Fusobacterium nucleatum; settings: control, 3 ul of 20%; after 3 days of incubation
Description: as §1

S. mutans [5] = experiment: zone of inhibition on blood agar, drop technique and line method (Example 3); type: cell-based, Streptococcus mutans; settings: control spot, dilution not given; after 5 days of incubation
Description: (§2) Experimental Design: Blood agar (for the 3 anaerobic bacteria, 3 facultative bacteria and 1 aerobic yeast; Fisher Scientific) plates were individually swabbed with fresh 24 h broth cultures of C. rectus, Aggregatibacter actinomycetemcomitans (A.a), C. albicans, P. gingivalis, P. intermedia, F. nucleatum and S. mutans to provide a confluent lawn of microbial growth. Five minutes after swabbing the plates (to allow the inoculum to absorb into the agar), the test and control specimens (see below) were aseptically pipetted (5 ul) onto designated places on the plates and allowed to adsorb (or adhere, in the case of the undiluted sera) into the agar. Assays were conducted in duplicate and undiluted and 1:5 and 1:10 dilutions of the solutions and sterile saline (negative control) and chlorhexidine (CHX) were used. […] The diameter of each zone was measured in mm. The zones of inhibition of each dilution sample were compared to the zones of control saline without antimicrobial components. If the zones of the solutions were the same size (or smaller) than the inhibition zones from the control saline than there was judged no inhibition of antimicrobial activity by the antimicrobial solutions. Conversely, if the zones of the solutions were larger than the inhibition zones from the control saline than there was judged significant antimicrobial activity by the solutions. […]

C. albicans = experiment: as above; type: cell-based, Candida albicans; settings: control spot, dilution not given; after 5 days of incubation
Description: as §2

P. gingivalis [6] = experiment: as above; type: cell-based, Porphyromonas gingivalis; settings: control spot, dilution not given; after 5 days of incubation
Description: as §2

P. intermedia [7] = experiment: as above; type: cell-based, Prevotella intermedia; settings: control spot, dilution not given; after 5 days of incubation
Description: as §2

F. nucleatum [8] = experiment: as above; type: cell-based, Fusobacterium nucleatum; settings: control spot, dilution not given; after 5 days of incubation
Description: as §2

[9] = tested on: Aggregatibacter actinomycetemcomitans (A.a); experiment: as above; type: cell-based; settings: control spot, dilution not given; after 5 days of incubation
Description: as §2

C. rectus = experiment: as above; type: cell-based, Campylobacter rectus; settings: control spot, dilution not given; after 5 days of incubation
Description: as §2, with “The” for “The diameter of each zone was measured in mm. The”

[10] = tested on: C. rectus, Aggregatibacter actinomycetemcomitans (A.a), C. albicans, P. gingivalis, P. intermedia, F. nucleatum and S. mutans; experiment: in vitro antimicrobial activity, summary over the seven microbes (Example 3); type: cell-based; settings: overall summary of Example 3
Description: Experimental Design: Blood agar (for the 3 anaerobic bacteria, 3 facultative bacteria and 1 aerobic yeast; Fisher Scientific) plates were individually swabbed with fresh 24 h broth cultures of C. rectus, Aggregatibacter actinomycetemcomitans (A.a), C. albicans, P. gingivalis, P. intermedia, F. nucleatum and S. mutans to provide a confluent lawn of microbial growth. Five minutes after swabbing the plates (to allow the inoculum to absorb into the agar), the test and control specimens (see below) were aseptically pipetted (5 ul) onto designated places on the plates and allowed to adsorb (or adhere, in the case of the undiluted sera) into the agar. Assays were conducted in duplicate and undiluted and 1:5 and 1:10 dilutions of the solutions and sterile saline (negative control) and chlorhexidine (CHX) were used. The plates were incubated agar-side up at 37° C. in a GasPak anaerobic jar or in 5% CO2 for 72 h. Plates were examined at 72 h for zones of inhibition of growth of the microbes. The diameter of each zone was measured in mm. The zones of inhibition of each dilution sample were compared to the zones of control saline without antimicrobial components. If the zones of the solutions were the same size (or smaller) than the inhibition zones from the control saline than there was judged no inhibition of antimicrobial activity by the antimicrobial solutions. […]

## [H]/N=C(\N/C(=N/[H])NCCCCCCNC(=N)NC(=N)Nc1ccc(Cl)cc1)Nc1ccc(Cl)cc1 [Chlorhexidine, chlorhexidine]
S. mutans [1]
  zone of inhibition: 19 mm
P. gingivalis [2]
  zone of inhibition: 25 mm
P. intermedia [3]
  zone of inhibition: 24 mm
F. nucleatum [4]
  zone of inhibition: 40 mm
S. mutans [5]
  diameter of zone of inhibition: 16 mm
C. albicans
  circumference of zone of inhibition: 20 mm
P. gingivalis [6]
  circumference of zone of inhibition: 14 mm
P. intermedia [7]
  diameter of zone of inhibition: 20 mm
F. nucleatum [8]
  circumference of zone of inhibition: 15 mm
[9]
  circumference of zone of inhibition: 11 mm
C. rectus
  circumference of zone of inhibition: 16 mm
[10]
  inhibition of growth of the seven species, in words: inhibited the microbial growth of each species
